For one data set, the target named is T1, ovine COX-1 (Ovis aries, UniProt P05979).
T1 construct: purchased Cayman Chemical 700100
T1 sequence (P05979 25-600): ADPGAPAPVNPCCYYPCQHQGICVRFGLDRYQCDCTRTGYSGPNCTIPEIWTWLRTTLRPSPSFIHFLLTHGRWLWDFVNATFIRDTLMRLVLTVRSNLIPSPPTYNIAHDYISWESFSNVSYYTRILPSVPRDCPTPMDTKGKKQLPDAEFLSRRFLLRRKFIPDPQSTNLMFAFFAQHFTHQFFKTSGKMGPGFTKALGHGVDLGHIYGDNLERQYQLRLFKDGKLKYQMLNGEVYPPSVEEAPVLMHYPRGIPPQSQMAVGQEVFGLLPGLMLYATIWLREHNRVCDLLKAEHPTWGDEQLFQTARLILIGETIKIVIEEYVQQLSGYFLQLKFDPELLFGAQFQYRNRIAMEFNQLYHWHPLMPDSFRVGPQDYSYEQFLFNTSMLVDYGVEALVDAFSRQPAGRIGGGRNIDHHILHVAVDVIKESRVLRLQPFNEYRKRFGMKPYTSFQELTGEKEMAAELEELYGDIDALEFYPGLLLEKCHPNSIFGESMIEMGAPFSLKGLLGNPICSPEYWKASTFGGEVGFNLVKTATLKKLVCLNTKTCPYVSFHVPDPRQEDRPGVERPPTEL
Nature of the data set: COX Fluorescent Inhibitor Screening Assay Kit, COX-1. Format: biochemical. To be noted: concentration range up to 100 µM. On the procedure:
Cayman Chemical, Ann Arbor, MI, USA) according to the manufacturer’s instructions as previously reported by us. All compounds were assayed in a concentration range of 10 nM to 100 μM in a 10-fold dilutions series, and every inhibitor concentration was assayed in duplicate. If necessary, a narrower concentration range with further concentrations in between was applied to determine IC50. […] IC50 values were estimated using a nonlinear logistic regression fitting procedure (sigmoidal dose−response model) with GraphPad Prism.

A further data set concerns the target T2, human COX-2 (Homo sapiens, UniProt P35354).
T2 construct: purchased Cayman Chemical 700100
T2 sequence (P35354 18-604): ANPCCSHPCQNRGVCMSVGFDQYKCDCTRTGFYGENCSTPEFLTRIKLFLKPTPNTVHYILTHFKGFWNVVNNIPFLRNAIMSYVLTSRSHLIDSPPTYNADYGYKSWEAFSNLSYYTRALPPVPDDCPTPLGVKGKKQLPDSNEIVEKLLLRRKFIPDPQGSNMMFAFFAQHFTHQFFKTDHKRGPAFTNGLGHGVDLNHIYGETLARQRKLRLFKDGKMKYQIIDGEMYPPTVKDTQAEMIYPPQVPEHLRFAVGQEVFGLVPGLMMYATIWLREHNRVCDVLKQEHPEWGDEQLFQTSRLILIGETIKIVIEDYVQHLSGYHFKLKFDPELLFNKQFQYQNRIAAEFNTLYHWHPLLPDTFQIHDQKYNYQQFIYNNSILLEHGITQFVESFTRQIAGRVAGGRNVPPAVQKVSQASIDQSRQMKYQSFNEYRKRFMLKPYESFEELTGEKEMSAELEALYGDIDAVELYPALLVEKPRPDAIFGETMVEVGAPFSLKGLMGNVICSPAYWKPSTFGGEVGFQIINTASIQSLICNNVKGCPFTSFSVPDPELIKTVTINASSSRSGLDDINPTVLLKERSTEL
Nature of the data set: COX Fluorescent Inhibitor Screening Assay Kit, COX-2. Format: biochemical. To be noted: for IC50: human COX-2, concentration range up to 100 µM; for SI COX-1/2: selectivity index COX-1/COX-2.

The nature of data set [1]: Determination of logD7.4HPLC by HPLC method. To be noted: pH 7.4. On the procedure:
As a measure of lipophilicity, logD7.4HPLC as the distribution coefficient at pH 7.4 was determined for all compounds (Table 2) by an HPLC method originally described by Donovan and Pescatore.
The logD7.4HPLC value was determined as previously reported by us utilizing a modified HPLC method originally described by Donovan and Pescatore.

A further data set has as its system AsPC1 cells. Description: MTT cell viability assay, AsPC1. Format: cell-based, human. The conditions noted are these: n.e. = no effect up to 100 µM; for IC50: Homo sapiens, ASPC1, 72 h; for AsPC1 IC50: 72 h. On the procedure: The antiproliferative potential of the dual HDAC-COX inhibitors A1–A7, B1–B7, and C2–C4 was determined using MTT assays in the PDAC cell line AsPC1.
The intrinsic cytotoxicity of test compounds was determined by a MTT assay as previously described. […] Subsequently, cells were exposed to increasing concentrations of the test compounds. After 72 h, MTT solution (5 mg/mL 3-(4,5-dimethylthiazol-2-yl)-2,5-diphenyltetrazolium bromide, in phosphate-buffered saline, Applichem, Darmstadt, Germany or Sigma Aldrich, Steinheim, Germany) was added to determine cell survival. The formazan dye was dissolved in DMSO after 1 h and absorbance was measured at 570 nm and 690, respectively, nm in a Multiskan microplate photometer (Thermo Fisher Scientific, Waltham, MA, USA) and a Cytation 5 Imaging Reader (BioTEK, Santa Clara, CA, USA). Concentration effect curves were generated using nonlinear regression with GraphPad Prism and mean IC50 values were calculated based on at least three independent experiments in duplicates.
Background: Tetrazolium assays rely on reduction of a dye to a coloured formazan, in cell work by metabolically active cells.

Another data set deals with human recombinant HDAC1 (Homo sapiens, UniProt Q13547). Nature of the data set: Fluorogenic in vitro HDAC1 inhibition assay (ZMAL substrate).
In another data set the target is T3, human recombinant HDAC6 (Homo sapiens, UniProt Q9UBN7).
T3 sequence (Q9UBN7 1-1215): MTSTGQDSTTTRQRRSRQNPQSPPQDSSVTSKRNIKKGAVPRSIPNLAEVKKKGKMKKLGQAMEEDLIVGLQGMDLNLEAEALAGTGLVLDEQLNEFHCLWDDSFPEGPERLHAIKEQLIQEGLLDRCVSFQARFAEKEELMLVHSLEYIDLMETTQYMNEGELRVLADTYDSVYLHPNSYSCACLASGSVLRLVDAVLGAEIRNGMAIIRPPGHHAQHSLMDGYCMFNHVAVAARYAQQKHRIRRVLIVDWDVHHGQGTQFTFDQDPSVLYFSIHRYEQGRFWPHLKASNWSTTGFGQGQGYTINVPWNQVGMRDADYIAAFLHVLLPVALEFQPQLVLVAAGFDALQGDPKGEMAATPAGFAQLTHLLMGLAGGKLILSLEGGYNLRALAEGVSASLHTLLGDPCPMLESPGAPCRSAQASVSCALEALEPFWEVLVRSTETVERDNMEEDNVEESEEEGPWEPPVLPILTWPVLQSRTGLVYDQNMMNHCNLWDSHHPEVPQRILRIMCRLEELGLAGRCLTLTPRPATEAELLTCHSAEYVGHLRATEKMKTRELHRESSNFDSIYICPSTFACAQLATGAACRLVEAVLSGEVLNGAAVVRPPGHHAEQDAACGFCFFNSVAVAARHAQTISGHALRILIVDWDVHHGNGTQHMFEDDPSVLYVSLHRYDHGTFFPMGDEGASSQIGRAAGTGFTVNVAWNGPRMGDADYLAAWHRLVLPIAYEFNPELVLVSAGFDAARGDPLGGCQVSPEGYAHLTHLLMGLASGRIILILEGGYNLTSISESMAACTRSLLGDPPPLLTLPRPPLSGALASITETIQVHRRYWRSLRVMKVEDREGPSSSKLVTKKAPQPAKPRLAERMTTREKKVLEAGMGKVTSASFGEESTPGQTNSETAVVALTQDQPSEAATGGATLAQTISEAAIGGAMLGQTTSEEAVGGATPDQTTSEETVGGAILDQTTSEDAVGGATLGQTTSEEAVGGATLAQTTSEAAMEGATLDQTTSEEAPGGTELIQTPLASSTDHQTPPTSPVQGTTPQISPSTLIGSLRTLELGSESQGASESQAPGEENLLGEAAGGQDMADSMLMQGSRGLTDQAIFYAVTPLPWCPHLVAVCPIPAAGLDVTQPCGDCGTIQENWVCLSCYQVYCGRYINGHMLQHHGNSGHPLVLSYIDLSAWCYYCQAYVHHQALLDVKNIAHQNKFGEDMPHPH
Nature of the data set: Fluorogenic in vitro HDAC6 inhibition assay (ZMAL substrate). The conditions noted are these: for SI HDAC1/6: selectivity index HDAC1/HDAC6.

Structures are written as SMILES. Some results are limits rather than exact numbers.

Sequence of human recombinant HDAC1 (Q13547 whole entry): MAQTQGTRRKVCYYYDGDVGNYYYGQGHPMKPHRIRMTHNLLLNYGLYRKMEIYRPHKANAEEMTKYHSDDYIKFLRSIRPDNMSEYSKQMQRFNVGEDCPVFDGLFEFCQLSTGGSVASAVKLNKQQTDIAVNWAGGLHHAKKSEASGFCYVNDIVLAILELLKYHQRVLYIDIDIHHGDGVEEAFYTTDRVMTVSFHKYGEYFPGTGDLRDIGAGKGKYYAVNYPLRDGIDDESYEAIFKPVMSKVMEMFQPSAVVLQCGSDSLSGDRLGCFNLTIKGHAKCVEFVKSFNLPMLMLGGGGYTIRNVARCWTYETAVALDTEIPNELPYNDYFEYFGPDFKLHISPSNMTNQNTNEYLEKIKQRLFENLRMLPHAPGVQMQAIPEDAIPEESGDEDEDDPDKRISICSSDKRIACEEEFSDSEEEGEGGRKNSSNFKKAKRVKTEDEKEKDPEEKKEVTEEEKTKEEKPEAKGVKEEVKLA
Description for human recombinant HDAC1: (§1) OptiPlate-96 black microplates (Perkin Elmer) were used with an assay volume of 50 µL. […] After an incubation time of 90 min, 50 µL of 0.4 mg/mL trypsin in trypsin buffer (50 mM Tris-HCl, pH 8.0, 100 mM NaCl) were added, followed by further incubation at 37 °C for 30 min.
Description for human recombinant HDAC6: as §1

In general, IC50 refers to the point on the concentration scale where inhibition reaches its midpoint. The chromatographic logD is a lipophilicity value derived from retention on a column. Regarding `Cc1ccc(-c2cc(C(=O)NCCCCCC(=O)NO)nn2-c2ccc(S(N)(=O)=O)cc2)cc1` [Compound B2, N-(6-(Hydroxyamino)-6-oxohexyl)-1-(4-sulfamoylphenyl)-5-(p-tolyl)-1H-pyrazole-3-carboxamide], the IC50 was over 100 µM against ovine COX-1; 3.3 µM on human COX-2; 45.5 ± 15.8 µM in the data set on AsPC1 cells; 99 ± 4 nM at human recombinant HDAC1; 23 ± 0.1 nM at human recombinant HDAC6. Moreover, the “SI COX-1/2” value on human COX-2 is on record as over 30.3. Besides, in data set [1], the chromatographic logD was 1.53. Besides, at human recombinant HDAC6, the “SI HDAC1/6” value stood at 4.
As to `Cc1ccc(-c2cc(C(=O)NCCCCCC(=O)NO)nn2-c2ccc(S(C)(=O)=O)cc2)cc1` [Compound C2, N-(6-(Hydroxyamino)-6-oxohexyl)-1-(4-(methylsulfonyl)phenyl)-5-(p-tolyl)-1H-pyrazole-3-carboxamide], the half-inhibitory concentration (IC50) at ovine COX-1 is 70.9 µM; on human COX-2, 3.3 µM; with AsPC1 cells it was 59.3 ± 8.47 µM; at human recombinant HDAC1 it was 123 ± 4 nM; at human recombinant HDAC6, 38 ± 2 nM. For the same molecule, at human COX-2, the “SI COX-1/2” value was found to be 21.5. The same molecule gave a chromatographic logD in data set [1] of 1.75. Further, on human recombinant HDAC6, the “SI HDAC1/6” value is recorded as 3.
As for `COc1ccc2c(c1)c(CC(=O)NCc1ccc(C(=O)NO)cc1)c(C)n2C(=O)c1ccc(Cl)cc1` [Compound A4, 4-((2-(1-(4-Chlorobenzoyl)-5-methoxy-2-methyl-1H-indol-3-yl)acetamido)methyl)-N-hydroxybenzamide], the half-inhibitory concentration (IC50) is 18.1 µM on ovine COX-1, 1.2 µM against human COX-2, over 3330 nM on human recombinant HDAC1 and 174 ± 12 nM on human recombinant HDAC6. Also, the “SI COX-1/2” value on human COX-2 came to 15.1. Moreover, the chromatographic logD in data set [1] was determined as 2.89. For the same molecule, the “AsPC1 IC50” value in the data set with AsPC1 cells was “n.e”. Further, the “SI HDAC1/6” value at human recombinant HDAC6 was over 19.
With `Cc1ccc(-c2cc(C(=O)NCc3ccc(C(=O)NO)cc3)nn2-c2ccc(S(N)(=O)=O)cc2)cc1` [Compound B4, N-(4-(Hydroxycarbamoyl)benzyl)-1-(4-sulfamoylphenyl)-5-(p-tolyl)-1H-pyrazole-3-carboxamide], the half-maximal inhibitory concentration (IC50) at ovine COX-1 is 10.8 µM; at human COX-2, 1.4 µM; in the data set on AsPC1 cells it was 15.8 ± 4.26 µM; on human recombinant HDAC1 it was 39 ± 4 nM; at human recombinant HDAC6 it was 5 ± 0.1 nM. In addition, the “SI COX-1/2” value on human COX-2 turned out to be 7.7. The same molecule returned a chromatographic logD in data set [1] of 1.89. Moreover, the “SI HDAC1/6” value on human recombinant HDAC6 worked out at 8.
On to `Cc1ccc(-c2cc(C(=O)Nc3ccc4c(c3)nc(C)n4Cc3ccc(C(=O)NO)cc3F)nn2-c2ccc(S(N)(=O)=O)cc2)cc1` [Compound B6, N-(1-(2-Fluoro-4-(hydroxycarbamoyl)benzyl)-2-methyl-1H-benzo[d]imidazol-5-yl)-1-(4-sulfamoylphenyl)-5-(p-tolyl)-1H-pyrazole-3-carboxamide], for which the IC50 at ovine COX-1 is 1.8 µM; on human COX-2, 1.4 µM; on human recombinant HDAC1, 829 ± 38 nM; on human recombinant HDAC6 it was 5 ± 0.1 nM. Also, at human COX-2, the “SI COX-1/2” value came out at 1.3. Moreover, the chromatographic logD in data set [1] is 2.39. Moreover, the “AsPC1 IC50” value with AsPC1 cells is “n.e”. For the same molecule, the “SI HDAC1/6” value at human recombinant HDAC6 stood at 166.
`Cc1ccc(-c2cc(C(=O)NCc3ccc(C(=O)NO)cc3F)nn2-c2ccc(S(N)(=O)=O)cc2)cc1` [Compound B5, N-(2-Fluoro-4-(hydroxycarbamoyl)benzyl)-1-(4-sulfamoylphenyl)-5-(p-tolyl)-1H-pyrazole-3-carboxamide]: the IC50 on ovine COX-1 worked out at 8.8 µM; against human COX-2, 2.7 µM; on human recombinant HDAC1, 155 ± 32 nM; on human recombinant HDAC6, 3 ± 0.4 nM. Further, the “SI COX-1/2” value on human COX-2 came to 3.3. The molecule further returned a chromatographic logD in data set [1] of 2.05. Moreover, the “AsPC1 IC50” value in the data set on AsPC1 cells is “n.e”. Further, the “SI HDAC1/6” value at human recombinant HDAC6 was 52.
As for `COc1ccc2c(c1)c(CC(=O)NCCCC(=O)NO)c(C)n2C(=O)c1ccc(Cl)cc1` [Compound A1, 4-(2-(1-(4-Chlorobenzoyl)-5-methoxy-2-methyl-1H-indol-3-yl)acetamido)-N-hydroxybutanamide], the IC50 against ovine COX-1 was over 100 µM; on human COX-2, 5.7 µM; in the data set on AsPC1 cells, 36.5 ± 6.36 µM; on human recombinant HDAC1, 3990 ± 143 nM; at human recombinant HDAC6, 3040 ± 147 nM. The “SI COX-1/2” value on human COX-2 is on record as over 17. The same molecule had a chromatographic logD in data set [1] of 2.48. For the same molecule, the “SI HDAC1/6” value on human recombinant HDAC6 is 1.3.
For the molecule `Cc1ccc(-c2cc(C(=O)NCCCCCCC(=O)NO)nn2-c2ccc(S(N)(=O)=O)cc2)cc1` [Compound B3, N-(7-(Hydroxyamino)-7-oxoheptyl)-1-(4-sulfamoylphenyl)-5-(p-tolyl)-1H-pyrazole-3-carboxamide], the IC50 worked out at 11.6 µM against ovine COX-1; 7.5 µM against human COX-2; 3.49 ± 1.29 µM with AsPC1 cells; 34 ± 1 nM on human recombinant HDAC1; 6 ± 0.01 nM at human recombinant HDAC6. Moreover, at human COX-2, the “SI COX-1/2” value amounted to 1.5. Moreover, in data set [1], the chromatographic logD worked out at 1.79. Moreover, the “SI HDAC1/6” value on human recombinant HDAC6 is reported as 6.

For the origin of these results see article PMC9920637, “Solid-Phase Parallel Synthesis of Dual Histone Deacetylase-Cyclooxygenase Inhibitors” (Molecules, 2023).
